{"source": "patent US20090291983A1", "about": "“3-Oxoisoindoline-1-Carboxamide Derivatives as Analgesic Agents” (AstraZeneca AB, priority 2006, published 2009)", "data": [{"molecular_target": "T1, voltage-gated sodium channel of interest (NaV1.7) (Homo sapiens, UniProt Q15858)", "T1 construct": "Gene(s) encoding the full-length protein of the voltage-gated sodium channel of interest are cloned and expressed; expressed in transfected cells", "T1 sequence (Q15858 whole entry)": "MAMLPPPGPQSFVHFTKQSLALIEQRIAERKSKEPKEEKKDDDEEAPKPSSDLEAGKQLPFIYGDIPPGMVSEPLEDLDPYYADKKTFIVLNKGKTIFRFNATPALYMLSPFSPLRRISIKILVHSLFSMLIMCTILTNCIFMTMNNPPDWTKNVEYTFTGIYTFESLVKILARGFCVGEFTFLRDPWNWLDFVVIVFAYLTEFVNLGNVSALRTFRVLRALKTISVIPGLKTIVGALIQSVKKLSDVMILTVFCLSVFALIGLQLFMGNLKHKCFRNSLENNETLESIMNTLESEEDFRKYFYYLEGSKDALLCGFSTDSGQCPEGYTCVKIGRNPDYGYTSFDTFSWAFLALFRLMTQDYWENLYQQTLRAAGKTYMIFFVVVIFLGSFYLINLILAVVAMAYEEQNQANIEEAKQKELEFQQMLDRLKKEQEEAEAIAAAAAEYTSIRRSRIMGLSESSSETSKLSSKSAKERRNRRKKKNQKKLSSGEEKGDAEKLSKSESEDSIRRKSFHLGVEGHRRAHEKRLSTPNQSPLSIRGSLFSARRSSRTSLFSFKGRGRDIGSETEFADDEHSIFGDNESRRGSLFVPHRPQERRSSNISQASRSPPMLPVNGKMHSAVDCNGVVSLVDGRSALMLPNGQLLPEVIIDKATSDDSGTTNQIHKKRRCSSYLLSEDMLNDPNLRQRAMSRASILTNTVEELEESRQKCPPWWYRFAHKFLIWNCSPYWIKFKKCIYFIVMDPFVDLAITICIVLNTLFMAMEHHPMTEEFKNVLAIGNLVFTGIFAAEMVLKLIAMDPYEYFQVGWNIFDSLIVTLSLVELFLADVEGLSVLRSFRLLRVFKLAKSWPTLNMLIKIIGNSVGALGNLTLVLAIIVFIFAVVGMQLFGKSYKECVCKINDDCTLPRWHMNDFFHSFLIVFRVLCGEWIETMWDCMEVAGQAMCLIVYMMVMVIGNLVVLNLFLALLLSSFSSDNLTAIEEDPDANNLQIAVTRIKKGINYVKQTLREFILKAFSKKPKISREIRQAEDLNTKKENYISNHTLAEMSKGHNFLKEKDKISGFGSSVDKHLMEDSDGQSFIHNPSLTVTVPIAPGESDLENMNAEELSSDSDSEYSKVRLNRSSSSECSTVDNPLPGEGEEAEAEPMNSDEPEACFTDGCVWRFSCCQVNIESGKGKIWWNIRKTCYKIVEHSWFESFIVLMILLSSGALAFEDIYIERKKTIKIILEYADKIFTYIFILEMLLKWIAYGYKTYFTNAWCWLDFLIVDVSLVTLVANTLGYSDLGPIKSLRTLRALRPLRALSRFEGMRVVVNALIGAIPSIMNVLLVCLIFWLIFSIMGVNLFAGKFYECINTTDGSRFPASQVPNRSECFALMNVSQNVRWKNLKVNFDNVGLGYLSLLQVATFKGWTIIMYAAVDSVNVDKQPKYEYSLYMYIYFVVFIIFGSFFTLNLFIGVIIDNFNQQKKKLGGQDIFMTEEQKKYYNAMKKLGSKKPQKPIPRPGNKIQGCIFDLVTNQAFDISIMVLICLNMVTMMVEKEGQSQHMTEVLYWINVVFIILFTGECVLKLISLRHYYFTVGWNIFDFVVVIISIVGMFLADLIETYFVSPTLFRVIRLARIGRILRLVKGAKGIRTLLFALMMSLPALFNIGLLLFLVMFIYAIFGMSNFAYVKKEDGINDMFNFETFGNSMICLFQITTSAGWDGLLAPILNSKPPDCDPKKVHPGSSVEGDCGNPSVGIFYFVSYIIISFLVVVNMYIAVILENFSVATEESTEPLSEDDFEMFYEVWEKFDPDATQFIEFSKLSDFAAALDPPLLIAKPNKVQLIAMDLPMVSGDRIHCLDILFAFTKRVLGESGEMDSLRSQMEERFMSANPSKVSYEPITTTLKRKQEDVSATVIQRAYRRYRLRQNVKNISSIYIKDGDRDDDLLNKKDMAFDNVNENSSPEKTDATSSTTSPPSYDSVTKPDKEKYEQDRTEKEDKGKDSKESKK", "test": "Whole-cell voltage clamp electrophysiology assay (automated patch-clamp)", "type": "cell-based", "conditions": "cells stably expressing the voltage-gated sodium channel", "from_the_text": "Gene(s) encoding the full-length protein of the voltage-gated sodium channel of interest are cloned and expressed under a suitable promoter in a suitable cell line, as well known in the art. The so constructed stable cell lines are used in screening assays to identify suitable compounds active on voltage-gated sodium channels. Suitable screening assays are as follows.\nElectrophysiological recordings of sodium currents in cells stably expressing the voltage-gated sodium channel of interest confirms activity and provides a functional measure of the potency of compounds that specifically affect such channels.\nElectrophysiological studies was performed using automated patch-clamp electrophysiology platforms, like IonWorks HT, IonWorks Quattro, PatchXpress, or any other suitable platform. The cell line expressing the voltage-gated sodium channel of interest was plated in appropriate well tissue plates, as provided by the manufacturer of the automated patch-clamp platforms. Suitable extracellular and intracellular buffer for such experiments was applied according to the instructions given by the manufacturer of the automated patch-clamp platforms. Cells that express the voltage-gated sodium channel protein of interest was exposed to drugs through the pipetting system integrated in the platforms. A suitable voltage stimulus protocol was used to activate the voltage-gated sodium channel proteins of interest. A suitable stimulus protocol consisted of eight voltage pulses, each to −20 mV and 50 ms in length, and separated from each other by 330 ms intervals at a potential of −90 mV, or −65 mV.\nElectrophysiological studies can also be performed using the whole cell configuration of the standard patch clamp technique as described in the literature (26). In this assay, cells that express the human voltage-gated sodium channel protein of interest are exposed to the drugs by conventional microperfusion systems and a suitable voltage stimulus protocol is used to activate the voltage-gated sodium channels.", "units": {"IC50": "nM"}, "values": [{"molecule": "COc1ccccc1CN1C(=O)c2ccccc2C1C(=O)Nc1c(C)cccc1Cl", "note": "(stereo not shown) [Example 2, N-(2-chloro-6-methylphenyl)-2-(2-methoxybenzyl)-3-oxoisoindoline-1-carboxamide]", "IC50": 316}, {"molecule": "Cc1cccc(C)c1NC(=O)C1c2ccccc2C(=O)N1CCOc1cc(C(F)(F)F)ccc1F", "note": "(stereo not shown) [Example 15, N-(2,6-dimethylphenyl)-2-{2-[2-fluoro-5-(trifluoromethyl)phenoxy]ethyl}-3-oxoisoindoline-1-carboxamide]", "IC50": 200}, {"molecule": "COc1ccccc1CN1C(=O)c2ccccc2C1C(=O)Nc1c(Cl)cccc1Cl", "note": "(stereo not shown) [Example 16, N-(2,6-dichlorophenyl)-2-(2-methoxybenzyl)-3-oxoisoindoline-1-carboxamide]", "IC50": 251}, {"molecule": "COc1cc(F)ccc1CN1C(=O)c2ccccc2C1C(=O)Nc1c(C)cccc1C", "note": "(stereo not shown) [Example 38, N-(2,6-dimethylphenyl)-2-(4-fluoro-2-methoxybenzyl)-3-oxoisoindoline-1-carboxamide]", "IC50": 100}]}]}
